Test results from US20240115662A1, “METHODS OF TREATING HYPOGONADOTROPIC HYPOGONADISM AND COGNITION IMPAIRMENT FOLLOWING A TRAUMATIC BRAIN INJURY” (WISCONSIN ALUMNI RESEARCH FOUNDATION, priority 2021, published 2024).

Tests used:
[1] = test system: human embryonic stem cells (hESC); test: hESC proliferation, trypan blue assay; format: cell-based; conditions: 6 d; E2 (10 nM), P4 (2 μM); compared to untreated control cells
Experimental: We therefore tested whether P4 was essential for the induction of NPC from hESC. hESC were treated with P4, E2 (which upregulates P4 receptor (PR) expression), or a combination of E2+P4.

hESC = hESC differentiation into neuroectoderm / neural precursor cells (nestin immunoblot, rosettes); format: cell-based, human
Experimental: FIG. 5A. hESC were grown in TESR1 media-Li in the presence of E2 (10 nM), P4 (2 μM) or E2 (10 nM)+P4 (2 μM) for 6 d and cell proliferation measured using the trypan blue assay. Results are expressed as mean±SEM, n=3 (*p<0.05, **p<0.005 compared to 6 d control). FIG. 5B. Equal amounts of protein from cell lysates of hESC treated for 9 d as described above were analyzed by immunoblot using a monoclonal antibody against nestin (clone 10C2; Chemicon, CA, USA). FIG. 5C. hESC were cultured for 4 days, enzymatically lifted and placed into EB media (containing serum) and rocked gently for an additional 4 days prior to being placed in one of two neural induction medias for an additional 11 days, where P4 was either absence or present. During this transition from EB to rosettes, colony structures treated with P4 also were treated with a Progesterone Receptor (PR) antagonist (RU-486; 20 μM) for 11 days. At 19 day, morphological observation and molecular analysis were performed. (i) Control structure, a minimum of three rosette structures were observed inside the cystic cavity (arrows). (ii) hESC structure in the absence of P4 (no rosettes) (iii) PR antagonist treated rosettes (no rosettes; RU-486, 20 μM). FIG. 5D. Equal amounts of protein from cell lysates of above structures were analyzed by immunoblot for nestin.
These structures are predominantly composed of NPCs (NSCs) akin to those that form the neural tube and can be further differentiated into various neural lineages. To understand which hormonal signals regulate the specification of hESC into NSCs, we closely examined the composition of the medias and supplements that had been developed by trial and error for the maintenance of hESC, and their differentiation first into embryoid bodies (EBs) and then into NPC. We identified P4 in the B27 supplement as being necessary and sufficient for the survival and differentiation of late embryonic neurons in vitro (E18 primary hippocampal/cortical/striatal neurons). […]

[2] = test system: male Sprague Dawley rats with craniectomy or controlled cortical impact (CCI) injury; test: Plasma steroid concentrations after craniectomy (Sham) or CCI injury, hCG with or without RU-486; format: in vivo, rat
Experimental: Male Sprague Dawley (SD) rats (n=58, 5-6-months old) were acquired from Harlan Laboratories Inc. (Madison, WI) and acclimated to the environment over 2 days. Rats were then weighed and handled for no less than 5 min each for 5 consecutive days and daily thereafter while being housed, fed and maintained on a 12-hour reverse light/dark cycle. The Institutional Animal Care and Use Committee (Animal Component of Research Protocol) at the William S. Middleton Veterans Administration Hospital approved the procedures used in this study and the research was conducted in an AAALAC-approved facility. Experimenters were blinded as to the identity of the animals throughout injections, blood collections, and body weight and hormone data analyses.
All surgical procedures were carried out under isoflurane gas anesthesia (5% for induction; 1.5-3.0% for maintenance, craniectomy ˜15-30 min duration; craniectomy+CCI injury ˜25-45 min duration). An anesthesia chamber was used for induction and a nose cone was used for maintenance.
Anesthetized rats were mounted in a Kopf stereotaxic device (Model 900; Tujunga, CA), where the animal's head was held in place by non-traumatic ear bars and a bite bar. Anesthesia was maintained by nose cone while the head was shaved and sterilized with 70% ethanol and Betadine™ (Purdue Products L.P., Stamford, CT) antiseptic solution. Throughout surgery anesthesia levels were monitored closely and were frequently adjusted as need, based on heart rate, respiration rate and oxygen saturation. A homeothermic blanket control unit (Harvard Apparatus, Holliston, MA) was used to monitor body temperature and to prevent hypothermia throughout surgery.
Under aseptic conditions, the cranium and its bony landmarks including bregma (β) and lambda (λ) were exposed by making a midline incision along the scalp into the skin and fascia covering the skull. A 6 mm diameter craniectomy was centered on the midline at 2.5 mm anterior to β. The cortical impact was made at 2.5 mm anterior to β over the midline of the medial frontal cortex with an Impact One™ Stereotaxic CCI instrument (Leica, Buffalo Grove, IL), using a 5 mm impactor (bit size), traveling at 2.25 m/s (velocity), extending 3 mm below the cortical surface (impact depth) for 100 ms (dwell time). Sham-injured groups received the same surgical procedures up to and including craniectomy but no CCI injury. After surgery, the rats were placed on a heating pad, monitored closely and upon awakening were tested 30 min later for righting reflex to assess any immediate effects of craniectomy or CCI injury on righting ability, and then returned to their home cages.
Baseline blood draws were collected from all animals. […] Pregnyl® is a highly purified pyrogen-free preparation obtained from the urine of pregnant females. Each vial contains 10,000 USP units of sterile dried powder with 5 mg monobasic sodium phosphate and 4.4 mg dibasic sodium phosphate that is diluted in solvent containing water, 0.56% sodium chloride and 0.9% benzyl alcohol (www.drugs.com/pro/pregnyl.html).
Rats were anesthetized (between 9:00 a.m.-12:00 noon) and their tails placed in a 200 mL beaker filled with warm water (≤44° C.) for 5 min. The tail was clean with 70% alcohol, the minimal amount of the tail tip snipped with a blade, and/or the wound reopened by removal of the scab for subsequent bleeds, and ˜1 mL of whole blood was collected directly into EDTA tubes at baseline (PID-10) and at PID, 1, 11, 19 and 29. […] Animals were injected with Lactate Ringers solution (5 mL) for fluid resuscitation. At the terminal bleed (day 29), blood also was collected via heart puncture. Collected blood was immediately centrifuged at 4,000 g for 10-20 min and the plasma aliquoted into Eppendorf tubes for storage at −80° C.

CC(=O)[C@H]1CC[C@H]2[C@@H]3CCC4=CC(=O)CC[C@]4(C)[C@H]3CC[C@]12C [P4, progesterone]
decrease in rate of hESC proliferation [1]: 29%
nestin expression (immunoblot) (hESC; hESC treated for 9 d, E2 (10 nM), P4 (2 μM)): increased the neuroectodermal marker nestin

C[C@]12CC[C@@H]3c4ccc(O)cc4CC[C@H]3[C@@H]1CC[C@@H]2O [E2, estradiol]
decrease in rate of hESC proliferation [1]: 16%

11β-[p-(Dimethylamino)phenyl]-17α-(1-propynyl)estra-4,9-dien-17β-ol-3-one [RU-486]
plasma P4 concentration ([2]; CCI injured animals with RU-486 pretreatment, PID 1): 40.9 ± 10.0 ng/mL
plasma T concentration ([2]; CCI injured animals with RU-486 pretreatment, PID 11): 4.5 ± 1.5 ng/mL
plasma T concentration ([2]; CCI injured animals with RU-486 pretreatment, PID 19): 3.1 ± 1.1 ng/mL
effect on circulating 11-DOC and corticosterone ([2]; CCI injured animals, RU486 pretreatment): no significant effects
effect on corticosterone ([2]; Sham surgery, saline and hCG-treated animals, RU486 pretreatment (except PID 19 in Sham+hCG)): prevented Sham surgery-induced decreases in corticosterone through PID 29
circulating 11-DOC ([2]; Sham+hCG rats with RU486 pretreatment (40 mg/kg i.p.), PID 1): 282.4 ± 28.0 ng/mL
plasma P4 concentration ([2]; Sham+hCG with RU486 pretreatment, PID 29): 8.5 ± 4.5 ng/mL
effect on 11-DOC ([2]; Sham+saline with RU486 pretreatment): preventing the Sham+saline treatment-induced decrease in 11-DOC through PID29
nestin (immunoblot) in PR-antagonist treated structures (hESC; RU-486 20 μM): absence of nestin
neuroectodermal rosette formation (hESC; RU-486 20 μM for 11 days, in presence of P4): No rosettes were detected
